Substitutions are numbered along the chain they refer to. In brackets after ≈: the same amount, converted by molar mass. Values belong to the compound of their own block, whether it stands above or below them.
Assays:
[1] = Cytotoxic activity against human HL60 cells; assay type: functional, cell-based; conditions: HL-60
[2] = Oral bioavailability in Beagle dog at 5 mg/kg; assay type: ADME, organism-based, Canis lupus familiaris; conditions: in vivo
[3] = Half life in Beagle dog at 5 mg/kg, po; assay type: ADME, organism-based, Canis lupus familiaris; conditions: in vivo
[4] = Volume of distribution in Beagle dog at 2.5 mg/kg, iv; assay type: ADME, organism-based, Canis lupus familiaris; conditions: in vivo
[5] = Cmax in Beagle dog at 5 mg/kg, po after 1.8 hrs; assay type: ADME, organism-based, Canis lupus familiaris; parameters: dose 5 mg/kg, route oral; conditions: in vivo
[6] = Cytotoxicity against human HCT8 cells assessed as growth inhibition by MTT assay; assay type: functional; conditions: HCT-8
[7] = Half life in Beagle dog at 2.5 mg/kg, iv; assay type: ADME, organism-based, Canis lupus familiaris; conditions: in vivo
Candida albicans = assay: Antifungal activity against Candida albicans after 24 hrs by microtiter method; assay type: functional
[8] = Tmax in Beagle dog at 5 mg/kg, po; assay type: ADME, organism-based, Canis lupus familiaris; conditions: in vivo
Dihydrofolate reductase [9] = biological target: T1, Dihydrofolate reductase (Homo sapiens, UniProt P00374); assay: Competitive inhibition of human recombinant DHFR preincubated for 2 mins followed by substrate addition in presence of dihydrofolate
T1 sequence (P00374 whole entry): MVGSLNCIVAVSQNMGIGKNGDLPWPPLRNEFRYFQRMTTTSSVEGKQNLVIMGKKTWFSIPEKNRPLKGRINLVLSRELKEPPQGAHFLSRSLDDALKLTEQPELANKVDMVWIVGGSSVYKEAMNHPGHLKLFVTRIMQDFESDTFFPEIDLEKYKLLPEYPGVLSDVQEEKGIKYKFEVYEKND

Human alphaherpesvirus 1 = assay: Antiviral activity against HSV1 after 1.5 hrs by microtiter plate reader analysis; conditions: Human alphaherpesvirus 1, 1.5 h
Plasmodium falciparum [10] = assay: Antimalarial activity against Plasmodium falciparum D6 assessed as [3H]hypoxantine incorporation preincubated for 48 hrs followed by [3H]hypoxantine addition measured after 18 hrs by scintillation counting analysis; assay type: functional, organism-based
Plasmodium falciparum [11] = assay: Antimalarial activity against Plasmodium falciparum RCS assessed as [3H]hypoxantine incorporation preincubated for 48 hrs followed by [3H]hypoxantine addition measured after 18 hrs by scintillation counting analysis; assay type: functional, organism-based
[12] = Therapeutic index, ratio of MTD for Sprague-Dawley rat to MCD for Plasmodium berghei infected in Sprague-Dawley rat; conditions: read-out: TI
Plasmodium falciparum [13] = assay: Antimalarial activity against Plasmodium falciparum W-2 assessed as [3H]hypoxantine incorporation preincubated for 48 hrs followed by [3H]hypoxantine addition measured after 18 hrs by scintillation counting analysis; assay type: functional, organism-based
Plasmodium falciparum [14] = assay: Antimalarial activity against Plasmodium falciparum TM91C235 assessed as [3H]hypoxantine incorporation preincubated for 48 hrs followed by [3H]hypoxantine addition measured after 18 hrs by scintillation counting analysis; assay type: functional, organism-based
[15] = Inhibition of DHFR in Crithidia oncopelti using dihydrofolate as substrate preincubated for 5 mins followed by substrate addition by spectrofluorometric analysis
Dihydrofolate reductase [16] = biological target: T2, Dihydrofolate reductase (Mus musculus, UniProt P00375); assay: Inhibition of DHFR in mouse L1210 cells using dihydrofolate as substrate preincubated for 5 mins followed by substrate addition by spectrofluorometric analysis; assay type: cell-based
T2 sequence (P00375 whole entry): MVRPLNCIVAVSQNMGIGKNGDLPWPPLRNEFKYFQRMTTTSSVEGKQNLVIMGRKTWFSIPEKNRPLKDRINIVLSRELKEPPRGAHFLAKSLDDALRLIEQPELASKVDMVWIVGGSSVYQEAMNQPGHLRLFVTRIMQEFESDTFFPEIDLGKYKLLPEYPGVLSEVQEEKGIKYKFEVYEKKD

Dihydrofolate reductase [17] = biological target: T3, Dihydrofolate reductase (Rattus norvegicus, UniProt Q920D2); assay: Inhibition of rat DHFR extracted from liver using dihydrofolate as substrate preincubated for 5 mins followed by substrate addition by spectrofluorometric analysis
T3 sequence (Q920D2 whole entry): T2 sequence (P00375 whole entry) with P27L, R85Q, R99K, I115V, G155E, V170I

L1210 = assay: Cytotoxicity against mouse L1210 cells assessed as growth inhibition after 48 hrs by MTT assay; assay type: functional, cell-based; conditions: L1210, 48 h
Dihydrofolate reductase [18] = biological target: Dihydrofolate reductase (Lactobacillus casei, UniProt P00381); assay: Inhibition of DHFR in Lactobacillus casei using dihydrofolate as substrate preincubated for 5 mins followed by substrate addition by spectrofluorometric analysis; parameters: species or system Lacticaseibacillus casei
Candida = assay: Antifungal activity against Candida clinical isolates after 24 hrs by microtiter method; assay type: functional

Structure (SMILES): CCn1c2ccccc2c2c3c(=O)[nH]c(NCCN(C)C)nc3ccc21
IC50 [1]: 17000 nM

bioavailability [2]: 49%
half-life [3]: 4 h
Vd [4]: 9.3 L/g
Cmax [5]: 170 ng/mL
half-life [7]: 2.8 h
MIC (Candida albicans): 0.025 µg/mL (≈ 0.0882 µM)
Tmax [8]: 1.8 h
Ki (Dihydrofolate reductase [9]): 0.0003 nM
Structure (SMILES): CCC(CC)n1c(C)cc2c3c(N)nc(N)nc3ccc21
GI50 [6]: 0.74 nM

Structure (SMILES): Nc1nc(N)c2c(ccc3[nH]ccc32)n1
Ki (Dihydrofolate reductase [9]): 1 nM

Structure (SMILES): Cc1cc2c(ccc3nc(N)nc(N)c32)[nH]1
IC50 (Human alphaherpesvirus 1): 15000 nM

Structure (SMILES): CC(=O)N(C(C)=O)c1nc(N(C(C)=O)C(C)=O)c2c(ccc3c2ccn3Cc2ccccc2C(F)(F)F)n1
IC50 (Plasmodium falciparum [10]): 0.046 nM
IC50 (Plasmodium falciparum [11]): 0.046 nM
selectivity ratio [12]: 80
IC50 (Plasmodium falciparum [13]): 0.14 nM
IC50 (Plasmodium falciparum [14]): 0.16 nM

IC50 [15]: 0.7 nM
IC50 (Dihydrofolate reductase [16]): 4 nM
IC50 (Dihydrofolate reductase [17]): 2.1 nM
IC50 (Dihydrofolate reductase [18]): 6.4 nM
Structure (SMILES): N#Cc1ccc(Cn2ccc3c4c(N)nc(N)nc4ccc32)cc1
IC50 (L1210): 40 nM

MIC (Candida): 1.39 µg/mL (≈ 5.49 µM)
MIC (Candida albicans): 1.39 µg/mL (≈ 5.49 µM)
Structure (SMILES): Nc1nc(N)c2c(ccc3c2ccn3CC2CC2)n1

MIC (Candida): 0.64 µg/mL (≈ 2.21 µM)
MIC (Candida albicans): 0.64 µg/mL (≈ 2.21 µM)
Structure (SMILES): Nc1nc(N)c2c(ccc3c2ccn3Cc2ccccc2)n1

— ChEMBL document CHEMBL3734661, “The chemistry and pharmacology of privileged pyrroloquinazolines” (Medchemcomm, 2015)
